# Reference: patent publication US20080051457A1, “Optically Active Phthalamide Derivative, Agricultural or Horticultural Insecticide, and Method of Using the Same” (priority 2004, published 2008)
# Assay: logP (pH2.3), physical properties of Tables 1 to 3
# Type: physicochemical
# Details: not given
# Source text: However, the present invention is not limited to these compounds. In the tables, the term “physical properties” means a melting point or logp. The symbol “Me” represents a methyl group, “Et” represents an ethyl group, “Pr” represents a propyl group, “-n” represents normal, and “-i” represents iso.
row,Compound,Physical properties logP(pH2.3)
1,Cc1cc(C(F)(C(F)(F)F)C(F)(F)F)ccc1NC(=O)c1cccc(I)c1C(=O)N[C@@H](CC(C)C)CS(C)(=O)=O [Compound 1-365],3.87
2,Cc1cc(C(F)(C(F)(F)F)C(F)(F)F)ccc1NC(=O)c1cccc(Br)c1C(=O)N[C@@H](CC(C)C)C[S+](C)[O-] (stereo partly drawn) [Compound 1-361],3.30
3,CC[C@@H](CSC)NC(=O)c1c(Br)cccc1C(=O)Nc1ccc(C(F)(C(F)(F)F)C(F)(F)F)cc1C [Compound 1-342],4.54
4,Cc1cc(C(F)(C(F)(F)F)C(F)(F)F)ccc1NC(=O)c1cccc(Cl)c1C(=O)N[C@@H](CC(C)C)CS(C)(=O)=O [Compound 1-359],3.77
5,CSC[C@@H](NC(=O)c1c(Cl)cccc1C(=O)Nc1ccc(C(F)(C(F)(F)F)C(F)(F)F)cc1C)C(C)C [Compound 1-348],4.77
6,CC[C@@H](CS(C)(=O)=O)NC(=O)c1c(I)cccc1C(=O)Nc1ccc(C(F)(C(F)(F)F)C(F)(F)F)cc1C [Compound 1-347],3.45
7,CC[C@@H](CS(C)(=O)=O)NC(=O)c1c(Cl)cccc1C(=O)Nc1ccc(C(F)(C(F)(F)F)C(F)(F)F)cc1C [Compound 1-341],3.31
8,CC[C@@H](C[S+](C)[O-])NC(=O)c1c(I)cccc1C(=O)Nc1ccc(C(F)(C(F)(F)F)C(F)(F)F)cc1C (stereo partly drawn) [Compound 1-346],2.90
9,CSC[C@@H](NC(=O)c1c(Br)cccc1C(=O)Nc1ccc(C(F)(C(F)(F)F)C(F)(F)F)cc1C)C(C)C [Compound 1-351],4.80
10,CSC[C@H](CC(C)C)NC(=O)c1c(I)cccc1C(=O)Nc1ccc(C(F)(C(F)(F)F)C(F)(F)F)cc1C [Compound 1-363],5.24
11,CC[C@@H](C[S+](C)[O-])NC(=O)c1c(Br)cccc1C(=O)Nc1ccc(C(F)(C(F)(F)F)C(F)(F)F)cc1C (stereo partly drawn) [Compound 1-343],2.83
12,Cc1cc(C(F)(C(F)(F)F)C(F)(F)F)ccc1NC(=O)c1cccc(Br)c1C(=O)N[C@H](C[S+](C)[O-])C(C)C (stereo partly drawn) [Compound 1-352],3.06
13,Cc1cc(C(F)(C(F)(F)F)C(F)(F)F)ccc1NC(=O)c1cccc(I)c1C(=O)N[C@H](CS(C)(=O)=O)C(C)C [Compound 1-356],3.70

# Same assay, conditions: Table 1
row,Compound,Physical properties: logP
1,CCSC[C@H](C)NC(=O)c1c(I)cccc1C(=O)Nc1ccc(C(F)(F)C(F)(F)F)c(F)c1C [Compound 1-108],4.36
2,CCSC[C@H](C)NC(=O)c1c(I)cccc1C(=O)Nc1cc(F)c(OC(F)(F)F)cc1Cl [Compound 1-117],4.26
3,CC[S+]([O-])C[C@H](C)NC(=O)c1c(I)cccc1C(=O)Nc1ccc(C(F)(C(F)(F)F)C(F)(F)F)c(F)c1C (stereo partly drawn) [Compound 1-106],2.97
4,CCSC[C@H](C)NC(=O)c1c(I)cccc1C(=O)Nc1ccc(C(F)(F)F)c(F)c1C [Compound 1-126],3.90
5,CCSC[C@H](C)NC(=O)c1c(I)cccc1C(=O)Nc1cc(F)c(OC(F)(F)F)cc1Br [Compound 1-114],4.28
6,Cc1c(NC(=O)c2cccc(I)c2C(=O)N[C@@H](C)C[S+](C)[O-])ccc(C(F)(F)C(F)(F)F)c1F (stereo partly drawn) [Compound 1-136],2.50
7,CCS(=O)(=O)C[C@H](C)NC(=O)c1c(I)cccc1C(=O)Nc1ccc(C(F)(F)C(F)(F)F)c(F)c1C [Compound 1-110],3.15
8,CCS(=O)(=O)C[C@H](C)NC(=O)c1c(I)cccc1C(=O)Nc1cc(F)c(OC(F)(F)F)cc1Cl [Compound 1-119],3.07
9,CCSC[C@H](C)NC(=O)c1c(I)cccc1C(=O)Nc1ccc(OC(F)(F)F)c(F)c1C [Compound 1-123],3.90
10,CCS(=O)(=O)C[C@H](C)NC(=O)c1c(I)cccc1C(=O)Nc1ccc(C(F)(F)F)c(F)c1C [Compound 1-128],2.74
11,CCS(=O)(=O)C[C@H](C)NC(=O)c1c(I)cccc1C(=O)Nc1ccc(Br)c(F)c1C [Compound 1-122],2.49
12,Cc1c(NC(=O)c2cccc(I)c2C(=O)N[C@@H](C)CS(C)(=O)=O)ccc(OC(F)(F)F)c1F [Compound 1-140],2.60
13,Cc1c(NC(=O)c2cccc(I)c2C(=O)N[C@@H](C)CS(C)(=O)=O)ccc(C(F)(F)C(F)(F)F)c1F [Compound 1-137],2.97
14,CCS(=O)(=O)C[C@H](C)NC(=O)c1c(I)cccc1C(=O)Nc1ccc(I)c(F)c1C [Compound 1-134],2.59

# Second part, the molecule after the results:
row,Physical properties: logP,Compound
1,2.86,Cc1c(NC(=O)c2cccc(Br)c2C(=O)N[C@@H](C)CS(C)(=O)=O)ccc(C(F)(F)C(F)(F)F)c1F [Compound 1-167]
2,2.59,CCS(=O)(=O)C[C@H](C)NC(=O)c1c(Br)cccc1C(=O)Nc1ccc(Br)c(Br)c1C [Compound 1-188]
3,2.29,Cc1c(NC(=O)c2cccc(I)c2C(=O)N[C@@H](C)CS(C)(=O)=O)ccc(Br)c1F [Compound 1-149]
4,3.19,CCS(=O)(=O)C[C@H](C)NC(=O)c1c(Br)cccc1C(=O)Nc1ccc(C(F)(F)C(F)(F)F)c(Cl)c1C [Compound 1-176]
5,3.58,CSC[C@H](C)NC(=O)c1c(I)cccc1C(=O)Nc1ccc(C(F)(F)F)c(F)c1C [Compound 1-156]
6,3.34,CCS(=O)(=O)C[C@H](C)NC(=O)c1c(Cl)cccc1C(=O)Nc1ccc(C(F)(C(F)(F)F)C(F)(F)F)c(F)c1C [Compound 1-203]
7,4.42,CCc1cc(C(F)(C(F)(F)F)C(F)(F)F)ccc1NC(=O)c1cccc(Br)c1C(=O)N[C@@H](C)CSC [Compound 1-219]
8,2.56,CC[S+]([O-])C[C@H](C)NC(=O)c1c(Cl)cccc1C(=O)Nc1ccc(C(F)(F)C(F)(F)F)c(F)c1C (stereo partly drawn) [Compound 1-208]
9,2.42,Cc1c(NC(=O)c2cccc(Br)c2C(=O)N[C@@H](C)C[S+](C)[O-])ccc(C(F)(F)C(F)(F)F)c1F (stereo partly drawn) [Compound 1-166]
10,3.42,CSC[C@H](C)NC(=O)c1c(I)cccc1C(=O)Nc1ccc(I)c(F)c1C [Compound 1-150]
11,2.40,Cc1c(NC(=O)c2cccc(I)c2C(=O)N[C@@H](C)CS(C)(=O)=O)ccc(I)c1F [Compound 1-152]
12,2.49,Cc1c(NC(=O)c2cccc(I)c2C(=O)N[C@@H](C)CS(C)(=O)=O)ccc(Br)c1Br [Compound 1-155]
13,4.31,CSC[C@H](C)NC(=O)c1c(Br)cccc1C(=O)Nc1ccc(C(F)(C(F)(F)F)C(F)(F)F)c(F)c1C [Compound 1-168]
14,2.72,Cc1c(NC(=O)c2cccc(Br)c2C(=O)N[C@@H](C)C[S+](C)[O-])ccc(C(F)(C(F)(F)F)C(F)(F)F)c1F (stereo partly drawn) [Compound 1-169]
15,3.81,CCSC[C@H](C)NC(=O)c1c(Br)cccc1C(=O)Nc1ccc(OC(F)(F)F)c(F)c1C [Compound 1-189]
16,2.51,CCS(=O)(=O)C[C@H](C)NC(=O)c1c(Br)cccc1C(=O)Nc1ccc(I)c(F)c1C [Compound 1-185]
17,3.26,CCc1cc(C(F)(C(F)(F)F)C(F)(F)F)ccc1NC(=O)c1cccc(Cl)c1C(=O)N[C@@H](C)CS(C)(=O)=O [Compound 1-218]

row,Physical properties: logP,Compound
1,4.41,CSC[C@H](C)NC(=O)c1c(I)cccc1C(=O)Nc1ccc(C(F)(C(F)(F)F)C(F)(F)F)c(F)c1C [Compound 1-141]
2,3.01,CCS(=O)(=O)C[C@H](C)NC(=O)c1c(Cl)cccc1C(=O)Nc1ccc(C(F)(F)C(F)(F)F)c(F)c1C [Compound 1-209]
3,2.78,Cc1c(NC(=O)c2cccc(I)c2C(=O)N[C@@H](C)C[S+](C)[O-])ccc(C(F)(C(F)(F)F)C(F)(F)F)c1F (stereo partly drawn) [Compound 1-142]
4,3.06,CCS(=O)(=O)C[C@H](C)NC(=O)c1c(Br)cccc1C(=O)Nc1ccc(C(F)(F)C(F)(F)F)c(F)c1C [Compound 1-173]
5,3.19,CCS(=O)(=O)C[C@H](C)NC(=O)c1c(I)cccc1C(=O)Nc1ccc(OC(F)(F)F)c(Br)c1Cl [Compound 1-164]
6,3.55,CSC[C@H](C)NC(=O)c1c(I)cccc1C(=O)Nc1ccc(Br)c(Br)c1C [Compound 1-153]
7,4.36,CCc1cc(C(F)(C(F)(F)F)C(F)(F)F)ccc1NC(=O)c1cccc(Cl)c1C(=O)N[C@@H](C)CSC [Compound 1-216]
8,4.43,CCSC[C@H](C)NC(=O)c1c(Br)cccc1C(=O)Nc1ccc(C(F)(F)C(F)(F)F)c(Cl)c1C [Compound 1-174]
9,2.59,CC[S+]([O-])C[C@H](C)NC(=O)c1c(Br)cccc1C(=O)Nc1ccc(C(F)(F)C(F)(F)F)c(F)c1C (stereo partly drawn) [Compound 1-172]
10,3.21,Cc1c(NC(=O)c2cccc(Br)c2C(=O)N[C@@H](C)CS(C)(=O)=O)ccc(C(F)(C(F)(F)F)C(F)(F)F)c1F [Compound 1-170]
11,3.78,CCSC[C@H](C)NC(=O)c1c(Br)cccc1C(=O)Nc1ccc(Br)c(Br)c1C [Compound 1-186]
12,2.90,CC[S+]([O-])C[C@H](C)NC(=O)c1c(Br)cccc1C(=O)Nc1ccc(C(F)(C(F)(F)F)C(F)(F)F)c(F)c1C (stereo partly drawn) [Compound 1-199]
13,3.93,CSC[C@H](C)NC(=O)c1c(Br)cccc1C(=O)Nc1ccc(C(F)(F)C(F)(F)F)c(F)c1C [Compound 1-165]
14,3.18,CCS(=O)(=O)C[C@H](C)NC(=O)c1c(I)cccc1C(=O)Nc1ccc(OC(F)(F)F)c(Cl)c1Cl [Compound 1-161]
15,2.69,Cc1c(NC(=O)c2cccc(Cl)c2C(=O)N[C@@H](C)C[S+](C)[O-])ccc(C(F)(C(F)(F)F)C(F)(F)F)c1F (stereo partly drawn) [Compound 1-205]
16,4.21,CCSC[C@H](C)NC(=O)c1c(Cl)cccc1C(=O)Nc1ccc(C(F)(F)C(F)(F)F)c(F)c1C [Compound 1-207]
